Test results: ChEMBL document CHEMBL1926563, “Synthesis, antimicrobial, antimycobacterial and structure-activity relationship of substituted pyrazolo-, isoxazolo-, pyrimido- and mercaptopyrimidocyclohepta[b]indoles” (2012)
Converted amounts (≈) assume the structure as drawn. The source made the active and inactive calls. No cut-off for these calls is given here.

Key:
[1] = test system: Mycobacterium tuberculosis; assay: Antimycobacterial activity against Mycobacterium tuberculosis H37Rv after 7 days by resazurin microtiter plate assay; type: functional; conditions: 168 h
[2] = test system: Staphylococcus aureus; assay: Antibacterial activity against Staphylococcus aureus NCIM 5021 assessed as zone of inhibition at 200 ug/disc after 24 hrs by disk diffusion method; type: functional; conditions: NCIM 5021, 24 h, read-out: DIZ
[3] = test system: Fusarium solani; assay: Antifungal activity against Fusarium solani NCIM 1330 assessed as zone of inhibition at 100 ug/disc after 48 hrs by disk diffusion method; type: functional; conditions: NCIM 1330, 48 h, read-out: DIZ
[4] = test system: Aspergillus niger; assay: Antifungal activity against Aspergillus niger NCIM 596 assessed as zone of inhibition at 100 ug/disc after 48 hrs by disk diffusion method; type: functional; conditions: NCIM 596, 48 h, read-out: DIZ
[5] = test system: Bacillus subtilis; assay: Antibacterial activity against Bacillus subtilis NCIM 2063 assessed as zone of inhibition at 100 ug/disc after 24 hrs by disk diffusion method; type: functional; conditions: NCIM 2063, 24 h, read-out: DIZ
[6] = test system: Klebsiella pneumoniae; assay: Antibacterial activity against Klebsiella pneumoniae NCIM 2957 assessed as zone of inhibition at 100 ug/disc after 24 hrs by disk diffusion method; type: functional; conditions: NCIM 2957, 24 h, read-out: DIZ
[7] = test system: Bacillus subtilis; assay: Antibacterial activity against Bacillus subtilis NCIM 2063 assessed as zone of inhibition at 200 ug/disc after 24 hrs by disk diffusion method; type: functional; conditions: NCIM 2063, 24 h, read-out: DIZ
[8] = test system: Curvularia lunata; assay: Antifungal activity against Curvularia lunata NCIM 716 assessed as zone of inhibition at 200 ug/disc after 48 hrs by disk diffusion method; type: functional; conditions: NCIM 716, 48 h, read-out: DIZ
[9] = test system: Staphylococcus aureus; assay: Antibacterial activity against Staphylococcus aureus NCIM 5021 assessed as zone of inhibition at 100 ug/disc after 24 hrs by disk diffusion method; type: functional; conditions: NCIM 5021, 24 h, read-out: DIZ
[10] = test system: Aspergillus niger; assay: Antifungal activity against Aspergillus niger NCIM 596 assessed as zone of inhibition at 200 ug/disc after 48 hrs by disk diffusion method; type: functional; conditions: NCIM 596, 48 h, read-out: DIZ
[11] = test system: Curvularia lunata; assay: Antifungal activity against Curvularia lunata NCIM 716 assessed as zone of inhibition at 100 ug/disc after 48 hrs by disk diffusion method; type: functional; conditions: NCIM 716, 48 h, read-out: DIZ
[12] = test system: Klebsiella pneumoniae; assay: Antibacterial activity against Klebsiella pneumoniae NCIM 2957 assessed as zone of inhibition at 200 ug/disc after 24 hrs by disk diffusion method; type: functional; conditions: NCIM 2957, 24 h, read-out: DIZ
[13] = test system: Proteus vulgaris; assay: Antibacterial activity against Proteus vulgaris NCIM 2027 assessed as zone of inhibition at 100 ug/disc after 24 hrs by disk diffusion method; type: functional; conditions: NCIM 2027, 24 h, read-out: DIZ
[14] = test system: Fusarium solani; assay: Antifungal activity against Fusarium solani NCIM 1330 assessed as zone of inhibition at 200 ug/disc after 48 hrs by disk diffusion method; type: functional; conditions: NCIM 1330, 48 h, read-out: DIZ
[15] = test system: Proteus vulgaris; assay: Antibacterial activity against Proteus vulgaris NCIM 2027 assessed as zone of inhibition at 200 ug/disc after 24 hrs by disk diffusion method; type: functional; conditions: NCIM 2027, 24 h, read-out: DIZ
[16] = test system: Mycobacterium tuberculosis; assay: Antimycobacterial activity against Mycobacterium tuberculosis H37Rv at 1.5 to 50 ug/ml after 7 days by resazurin microtiter plate assay; type: functional, organism-based

Row | Compound | MIC [1] | zone of inhibition at 200 µg/disc [2] | zone of inhibition at 100 µg/disc [3] | zone of inhibition at 100 µg/disc [4] | zone of inhibition at 100 µg/disc [5] | zone of inhibition at 100 µg/disc [6] | zone of inhibition at 200 µg/disc [7] | zone of inhibition at 200 µg/disc [8] | zone of inhibition at 100 µg/disc [9] | zone of inhibition at 200 µg/disc [10] | zone of inhibition at 100 µg/disc [11] | zone of inhibition at 200 µg/disc [12] | zone of inhibition at 100 µg/disc [13] | zone of inhibition at 200 µg/disc [14] | zone of inhibition at 200 µg/disc [15] | MIC [16]
1 | Cc1ccc2c3c([nH]c2c1)-c1nc(S)ncc1CCC3 | 50 µg/mL (≈ 178 µM) | – | – | – | – | – | – | – | – | – | – | – | – | – | – | –
2 | Cc1ccc2[nH]c3c(c2c1)CCCc1cnc(O)nc1-3 | 50 µg/mL (≈ 188 µM) | 25 mm | 14 mm | 15 mm | 21 mm | 21 mm | 24 mm | 21 mm | 23 mm | 18 mm | 18 mm | 23 mm | 19 mm | 19 mm | 21 mm | –
3 | Cc1ccc2c3c([nH]c2c1)-c1nocc1CCC3 | 25 µg/mL (≈ 105 µM) | – | – | – | – | – | – | – | – | – | – | – | – | – | – | –
4 | Cc1cccc2c3c([nH]c12)-c1nc(S)ncc1CCC3 | 50 µg/mL (≈ 178 µM) | – | – | – | – | – | – | – | – | – | – | – | – | – | – | –
5 | Cc1ccc2[nH]c3c(c2c1)CCCc1conc1-3 | 50 µg/mL (≈ 210 µM) | 31 mm | 31 mm | 28 mm | 30 mm | 26 mm | 32 mm | 32 mm | 29 mm | 31 mm | 29 mm | 29 mm | 26 mm | 34 mm | 28 mm | –
6 | Cc1ccc2c3c([nH]c2c1)-c1c(cnn1-c1ccccc1)CCC3 | 25 µg/mL (≈ 79.8 µM) | – | – | – | – | – | – | – | – | – | – | – | – | – | – | –
7 | Cc1ccc2[nH]c3c(c2c1)CCCc1cnn(-c2ccccc2)c1-3 | – | 30 mm | 30 mm | 29 mm | 29 mm | 26 mm | 31 mm | 31 mm | 27 mm | 30 mm | 31 mm | 28 mm | 21 mm | 34 mm | 23 mm | inactive
8 | Cc1cccc2c3c([nH]c12)-c1nocc1CCC3 | 25 µg/mL (≈ 105 µM) | – | – | – | – | – | – | – | – | – | – | – | – | – | – | –
9 | c1ccc(-n2ncc3c2-c2[nH]c4ccccc4c2CCC3)cc1 | – | 27 mm | 28 mm | 26 mm | 24 mm | 21 mm | 26 mm | 31 mm | 25 mm | 30 mm | 29 mm | 24 mm | 20 mm | 33 mm | 23 mm | inactive
10 | Cc1ccc2c3c([nH]c2c1)-c1n[nH]cc1CCC3 | 25 µg/mL (≈ 105 µM) | – | – | – | – | – | – | – | – | – | – | – | – | – | – | –
11 | c1ccc2c3c([nH]c2c1)-c1nocc1CCC3 | – | 27 mm | 28 mm | 26 mm | 26 mm | 25 mm | 29 mm | 30 mm | 26 mm | 29 mm | 28 mm | 27 mm | 24 mm | 31 mm | 25 mm | inactive
12 | Cc1cccc2c3c([nH]c12)-c1c(cnn1-c1ccccc1)CCC3 | 25 µg/mL (≈ 79.8 µM) | – | – | – | – | – | – | – | – | – | – | – | – | – | – | –
13 | Cc1ccc2c3c([nH]c2c1)-c1nc(O)ncc1CCC3 | – | – | – | – | – | – | – | – | – | – | – | – | – | – | – | inactive
14 | Cc1ccc2[nH]c3c(c2c1)CCC/C(=C\O)C3=O | 25 µg/mL (≈ 104 µM) | 29 mm | 23 mm | 23 mm | 28 mm | 25 mm | 30 mm | 28 mm | 26 mm | 27 mm | 26 mm | 28 mm | 22 mm | 26 mm | 25 mm | –
15 | Cc1cccc2c3c([nH]c12)C(=O)/C(=C/O)CCC3 | 50 µg/mL (≈ 207 µM) | – | – | – | – | – | – | – | – | – | – | – | – | – | – | –
16 | Cc1ccc2c3c([nH]c2c1)C(=O)/C(=C/O)CCC3 | – | – | – | – | – | – | – | – | – | – | – | – | – | – | – | inactive
17 | Cc1cccc2c3c([nH]c12)-c1nc(O)ncc1CCC3 | – | – | – | – | – | – | – | – | – | – | – | – | – | – | – | inactive
18 | O=C1/C(=C/O)CCCc2c1[nH]c1ccc(Cl)cc21 | 25 µg/mL (≈ 95.5 µM) | 33 mm | 29 mm | 25 mm | 28 mm | 28 mm | 32 mm | 30 mm | 31 mm | 31 mm | 27 mm | 30 mm | 25 mm | 30 mm | 28 mm | –
19 | Cc1ccc2[nH]c3c(c2c1)CCCc1cnc(S)nc1-3 | 50 µg/mL (≈ 178 µM) | 15 mm | 13 mm | 14 mm | 14 mm | 11 mm | 16 mm | 20 mm | 13 mm | 16 mm | 16 mm | 12 mm | 10 mm | 16 mm | 12 mm | –
20 | Cc1cccc2c3c([nH]c12)-c1n[nH]cc1CCC3 | 25 µg/mL (≈ 105 µM) | – | – | – | – | – | – | – | – | – | – | – | – | – | – | –
21 | Cc1ccc2[nH]c3c(c2c1)CCCc1c[nH]nc1-3 | 50 µg/mL (≈ 211 µM) | 32 mm | 34 mm | 31 mm | 31 mm | 28 mm | 33 mm | 36 mm | 30 mm | 34 mm | 33 mm | 30 mm | 24 mm | 37 mm | 25 mm | –
22 | O=C1/C(=C/O)CCCc2c1[nH]c1ccccc21 | 50 µg/mL (≈ 220 µM) | 26 mm | 21 mm | 23 mm | 26 mm | 24 mm | 27 mm | 25 mm | 24 mm | 25 mm | 24 mm | 26 mm | 23 mm | 23 mm | 25 mm | –
